The text below walks through data of paper PMC7791840, “The R-enantiomer of ketorolac reduces ovarian cancer tumor burden in vivo” (BMC Cancer, 2021).

Where a name gives a salt, the structure may show the parent alone.

Data set [1] can be described thus: Toxicity assessment, blood chemistry after chronic treatment. The data set is classed as in vivo. Particulars: tumor-bearing mice, 5 mg/kg/d, 25 days, Average ± SD. On the procedure:
For toxicity assessment studies at an increased R-ketorolac dose of 5 mg/kg/d, athymic nude female mice were purchased from Charles River Laboratory (Wilmington, MA, strain code 490). Mice were injected i.p. with 1 × 10^6 SKOV3ip-RLuc-GFP cells suspended in sterile saline. Xenografts were established until tumors reached a bioluminescence imaging (BLI) value of ~ 3 × 10^8 radiance (IVIS SpectrumCT, PerkinElmer, Waltham MA). Mice were conditioned to placebo pills once a day for no less than 3 days during xenograft growth, then randomized to receive placebo or 5 mg/kg/d R-ketorolac for 25 days. Blood was collected via cardiac puncture and 0.2–0.4 mL was added to Lithium Heparin tubes (BD Microtainer, Ref #365965). Samples were mixed thoroughly immediately after filling the tube by gently inverting the tube by hand. Samples were kept and analyzed at room temperature within 60 min of collection. For each sample analysis 100 μl of blood was added to Abaxis Comprehensive Diagnostic Profile cassette (Abaxis, Inc. Union City, CA Ref. # 500–0038-24) and values obtained using Abaxis VetScan2 analyzer.

The conditions of data set [2]: mouse, in vivo.
Procedure: Foxn1^nu NU /J athymic nude female mice, aged 6–9 weeks, were purchased from The Jackson Laboratory (Bar Harbor, ME, stock number 002019). […] Mice were maintained at a controlled temperature of 22–23 °C, with a 12-h light/12-h dark cycle. Water and standard mouse chow were available ad libitum. […] Their health status was monitored throughout the experiment. […] Mice were euthanized using a CO2 chamber in accordance with the recommendation of the Panel on Euthanasia of the American Veterinary Medical Association. Cervical dislocation was then carried out to confirm death before tumor analysis and tissue collection.
Data set [3] has as its system Cdc42. Further details: method as in earlier work. Particulars: cell-based assays, ovarian tumor cells; ref 23 (R-ketorolac), 27 (S-ketorolac); cited from earlier work.
The subject of data set [4] is Rac1. Further details: method as in earlier work. Particulars: cell-based assays, ovarian tumor cells; ref 23 (R-ketorolac), 27 (S-ketorolac); cited from earlier work.
In data set [5] the test system is RhoA. Further details: method as in PMID 26071482. Particulars: cited from earlier work.
A short description of data set [6]: Enantiomer stability of ketorolac in the oral dosage form (HPLC). Conditions: transgenic dough pills stored at 4 °C. The data set is classed as physicochemical. On the procedure:
As an alternative to gavage for oral delivery, drug was administered in pills formed from transgenic dough (BioServ, Flemington, NJ, cat #S3472). […] Briefly, R-Ketorolac was dissolved in 100% ethanol to a concentration of 5 mg/ml. Bromophenol blue was added to solutions at a final concentration of 0.1% as an aid to ensure even distribution of drug into the dough. Placebo pills were made using an equivalent volume of 100% ethanol containing 0.1% bromophenol blue. Dough was then pressed using 100 mg pill forms (Gallipot, St. Paul, MN). Pills were allowed to dry at room temperature overnight then removed from the forms and stored at 4 °C. Ketorolac, as racemic compound or individual enantiomer, was stable for at least 3 months in the pills as determined by high performance liquid chromatography (HPLC) (Additional File 2: Figure S1).
Cell Culture and Reagents
SKOV3ip cells were modified to express GFP-Rac1 by transfection with pcDNA3-EGFP-Rac1-wt (Catalog # 12980, Addgene) as described for SKOV3ip-GFP cells under Methods. Rac1 overexpression quantification and verification was completed by western blot and qPCR. […]
Omental tissue was harvested and stored on ice in PBS for no more than 1 hour before analysis. Omenta were blotted dry on lab tissue and weight was measured using an analytical balance (Denver Instruments Company, A -160). […]

The mark [7] stands for this setting: ROS model for points below limit of detection.

For the compound `O=C(c1ccccc1)c1ccc2n1CC[C@H]2C(=O)O` [R-ketorolac], in data set [1], the Alanine aminotransferase is on record as 32.30 ± 11.35 U/L, the Albumin is on record as 4.05 ± 0.40 g/dL, the Amylase turned out to be 1069 ± 264 U/L and the “Blood Urea Nitrogen” value is on record as 16.4 ± 2.59 mg/dL. In data set [1], the Calcium turned out to be 11.58 ± 0.79 mg/dL, the Globulin is 1.77 ± 0.43 g/dL, the Glucose stood at 287.7 ± 81.31 mg/dL and the “Mouse Weight” value worked out at 23.67 ± 1.30 g. For the same compound, in data set [1], the Phosphorus turned out to be 9.86 ± 1.90 mg/dL, the Sodium is 151.3 ± 4.11 mmol/L, the “Total Bilirubin” value is listed as 0.26 ± 0.05 mg/dL and the “Total Protein” value worked out at 5.79 ± 0.34 g/dL. In data set [1] (setting [7]), this compound returned an Alkaline phosphatase of 28.97 ± 18.75 U/L and a Creatinin of 0.24 ± 0.13 mg/dL. Further, the Body weight entry in data set [2] is given as “No significant difference in body weight”. In data set [3], the half-maximal inhibitory concentration (IC50) was 1070 nM. The IC50 in data set [4] was 570 nM. Besides, the “Inhibition of RhoA activity” value in data set [5] is recorded as “does not inhibit the activity of RhoA”.
With `O=C(c1ccccc1)c1ccc2n1CCC2C(=O)O` (stereo not shown) [R−/S-ketorolac, ketorolac tromethamine salt], in data set [6], the Stability in pills result is recorded as “at least 3 months”.
